According to patent US11078170B2 (Assembly Biosciences, Inc., priority 2017, dated 2021):

Tested on: HBV viral production from HepAD38 cells
Assay: Activity of test compounds on viral production from HepAD38 cells (viral load by qPCR of HBV core sequence in supernatant)
Assay type: cell-based
Details: Hepatitis B virus, 120 h, 5 days incubation, HBV DNA in supernatant by qPCR, top concentration 10 μM, read-out: Viral Load EC50 Activity range
How it was run: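 HepAD38 cells, 50,000/well in tetracycline-free 2% FBS medium, treated 5 days at 37° C. with compound from 10 μM top concentration. HBV DNA in supernatant quantified by TaqMan qPCR of core sequence against DNA standards, relative to DMSO wells; CellTiter-Glo viability read in parallel. EC50/CC50 from four-parameter logistic fit.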

Row | Compound | EC50 [µM]
1 | CN1C(C(=O)Nc2ccc(F)c(Cl)c2)CC(c2ccc(-c3cnn(C)c3)cc2)NS1(=O)=O (racemic) [HBV-CSU-246, Cis-N-(3-Chloro-4-fluorophenyl)-2-methyl-5-(4-(1-methyl-1H-pyrazol-4-yl)phenyl)-1,2,6-thiadiazinane-3-carboxamide 1,1-dioxide] | < 1
2 | CN1C(C(=O)Nc2ccc(F)c(Cl)c2)CC(c2cccc(-c3cnn(C)c3)c2)NS1(=O)=O (racemic) [HBV-CSU-247, Cis-N-(3-chloro-4-fluorophenyl)-2-methyl-5-(3-(1-methyl-1H-pyrazol-4-yl)phenyl)-1,2,6-thiadiazinane-3-carboxamide 1,1-dioxide] | < 1
3 | CN1C(C(=O)Nc2ccc(F)c(Cl)c2)CC(c2ncc(-c3ccc(F)cc3)s2)NS1(=O)=O (racemic) [HBV-CSU-248, Cis-N-(3-Chloro-4-fluorophenyl)-5-(5-(4-fluorophenyl)thiazol-2-yl)-2-methyl-1,2,6-thiadiazinane-3-carboxamide 1,1-dioxide] | < 1
4 | COc1ccc(-c2cnc(C3CC(C(=O)Nc4ccc(F)c(Cl)c4)N(C)S(=O)(=O)N3)s2)cc1 (racemic) [HBV-CSU-250, Cis-N-(3-Chloro-4-fluorophenyl)-5-(5-(4-methoxyphenyl)thiazol-2-yl)-2-methyl-1,2,6-thiadiazinane-3-carboxamide 1,1-dioxide] | < 1
5 | CN1C(C(=O)Nc2ccc(F)c(Cl)c2)CC(c2ncc(-c3ccc(F)cn3)s2)NS1(=O)=O (racemic) [HBV-CSU-252, Cis-N-(3-Chloro-4-fluorophenyl)-5-(5-(5-fluoropyridin-2-yl)thiazol-2-yl)-2-methyl-1,2,6-thiadiazinane-3-carboxamide 1,1-dioxide] | < 1
6 | CN1C(C(=O)Nc2ccc(F)c(Cl)c2)CC(c2ncc(-c3cn[nH]c3)s2)NS1(=O)=O (racemic) [HBV-CSU-254, Cis-5-(5-(1H-pyrazol-4-yl)thiazol-2-yl)-N-(3-chloro-4-fluorophenyl)-2-methyl-1,2,6-thiadiazinane-3-carboxamide 1,1-dioxide] | < 1
7 | CN1C(C(=O)Nc2ccc(F)c(Br)c2)CC(c2cc(Br)cs2)NS1(=O)=O (racemic) [HBV-CSU-258, Cis-N-(3-Bromo-4-fluorophenyl)-5-(4-bromothiophen-2-yl)-2-methyl-1,2,6-thiadiazinane-3-carboxamide 1,1-dioxide] | < 1
8 | CN1C(C(=O)Nc2ccc(F)c(Cl)c2)CC(c2cccc(Cl)c2)NS1(=O)=O (racemic) [HBV-CSU-261, Cis-N-(3-Chloro-4-fluorophenyl)-5-(3-chlorophenyl)-2-methyl-1,2,6-thiadiazinane-3-carboxamide 1,1-dioxide] | < 1
9 | CN1C(C(=O)Nc2ccc(F)c(Cl)c2)CC(c2cccc(OC(F)(F)F)c2)NS1(=O)=O (racemic) [HBV-CSU-262, Cis-N-(3-Chloro-4-fluorophenyl)-2-methyl-5-(3-(trifluoromethoxy)phenyl)-1,2,6-thiadiazinane-3-carboxamide 1,1-dioxide] | < 1
10 | CN1C(C(=O)Nc2ccc(F)c(Cl)c2)CC(c2ccc(OC(F)F)cc2)NS1(=O)=O (racemic) [HBV-CSU-263, Cis-N-(3-Chloro-4-fluorophenyl)-5-(4-(difluoromethoxy)phenyl)-2-methyl-1,2,6-thiadiazinane-3-carboxamide 1,1-dioxide] | < 1
11 | CN1C(C(=O)Nc2ccc(F)c(Cl)c2)CC(c2cccc(OC(F)F)c2)NS1(=O)=O (racemic) [HBV-CSU-264, Cis-N-(3-chloro-4-fluorophenyl)-5-(3-(difluoromethoxy)phenyl)-2-methyl-1,2,6-thiadiazinane-3-carboxamide 1,1-dioxide] | < 1
12 | CN1C(C(=O)Nc2ccc(F)c(Cl)c2)CC(c2ccc(-c3cn(C)cn3)s2)NS1(=O)=O (racemic) [HBV-CSU-266, Cis-N-(3-Chloro-4-fluorophenyl)-2-methyl-5-(5-(1-methyl-1H-imidazol-4-yl)thiophen-2-yl)-1,2,6-thiadiazinane-3-carboxamide 1,1-dioxide] | < 1
13 | CN1C(C(=O)Nc2ccc(F)c(Cl)c2)CC(c2ccc(-c3cncn3C)s2)NS1(=O)=O (racemic) [HBV-CSU-267, Cis-N-(3-Chloro-4-fluorophenyl)-2-methyl-5-(5-(1-methyl-1H-imidazol-5-yl)thiophen-2-yl)-1,2,6-thiadiazinane-3-carboxamide 1,1-dioxide] | < 1
14 | CN1C(C(=O)Nc2ccc(F)c(Cl)c2)CC(c2ccc(-c3cncs3)s2)NS1(=O)=O (racemic) [HBV-CSU-268, Cis-N-(3-Chloro-4-fluorophenyl)-2-methyl-5-(5-(thiazol-5-yl)thiophen-2-yl)-1,2,6-thiadiazinane-3-carboxamide 1,1-dioxide] | < 1
15 | CN1C(C(=O)Nc2ccc(F)c(Cl)c2)CC(c2ccc(-c3cnco3)s2)NS1(=O)=O (racemic) [HBV-CSU-269, Cis-N-(3-Chloro-4-fluorophenyl)-2-methyl-5-(5-(oxazol-5-yl)thiophen-2-yl)-1,2,6-thiadiazinane-3-carboxamide 1,1-dioxide] | < 1
16 | CN1C(C(=O)Nc2ccc(F)c(Cl)c2)CC(c2ccc(-c3ccnn3C)s2)NS1(=O)=O (racemic) [HBV-CSU-271, Cis-N-(3-chloro-4-fluorophenyl)-2-methyl-5-(5-(1-methyl-1H-pyrazol-5-yl)thiophen-2-yl)-1,2,6-thiadiazinane-3-carboxamide 1,1-dioxide] | < 1
17 | CN1C(C(=O)Nc2ccc(F)c(Cl)c2)CC(c2ccc(-c3cncnc3)s2)NS1(=O)=O (racemic) [HBV-CSU-272, Cis-N-(3-chloro-4-fluorophenyl)-2-methyl-5-(5-(pyrimidin-5-yl)thiophen-2-yl)-1,2,6-thiadiazinane-3-carboxamide 1,1-dioxide] | < 1
18 | CN1C(C(=O)Nc2ccc(F)c(Cl)c2)CC(c2ncc(-c3cn(C)cn3)s2)NS1(=O)=O (racemic) [HBV-CSU-276, Cis-N-(3-Chloro-4-fluorophenyl)-2-methyl-5-(5-(1-methyl-1H-imidazol-4-yl)thiazol-2-yl)-1,2,6-thiadiazinane-3-carboxamide 1,1-dioxide] | < 1
19 | CN1C(C(=O)Nc2ccc(F)c(Cl)c2)CC(c2ncc(-c3cncn3C)s2)NS1(=O)=O (racemic) [HBV-CSU-277, Cis-N-(3-Chloro-4-fluorophenyl)-2-methyl-5-(5-(1-methyl-1H-imidazol-5-yl)thiazol-2-yl)-1,2,6-thiadiazinane-3-carboxamide 1,1-dioxide] | < 1
20 | CN1C(C(=O)Nc2ccc(F)c(Cl)c2)CC(c2ncc(-c3cncs3)s2)NS1(=O)=O (racemic) [HBV-CSU-278, Cis-5-([5,5′-Bithiazol]-2-yl)-N-(3-chloro-4-fluorophenyl)-2-methyl-1,2,6-thiadiazinane-3-carboxamide 1,1-dioxide] | < 1
21 | CN1C(C(=O)Nc2ccc(F)c(Cl)c2)CC(c2ncc(-c3ccn(C)n3)s2)NS1(=O)=O (racemic) [HBV-CSU-280, Cis-N-(3-Chloro-4-fluorophenyl)-2-methyl-5-(5-(1-methyl-1H-pyrazol-3-yl)thiazol-2-yl)-1,2,6-thiadiazinane-3-carboxamide 1,1-dioxide] | < 1
22 | CN1C(C(=O)Nc2ccc(F)c(Cl)c2)CC(c2ncc(-c3ccnn3C)s2)NS1(=O)=O (racemic) [HBV-CSU-281, Cis-N-(3-Chloro-4-fluorophenyl)-2-methyl-5-(5-(1-methyl-1H-pyrazol-5-yl)thiazol-2-yl)-1,2,6-thiadiazinane-3-carboxamide 1,1-dioxide] | < 1
23 | CN1C(C(=O)Nc2ccc(F)c(Cl)c2)CC(c2cc(-c3cncn3C)cs2)NS1(=O)=O (racemic) [HBV-CSU-285, Cis-N-(3-Chloro-4-fluorophenyl)-2-methyl-5-(4-(1-methyl-1H-imidazol-5-yl)thiophen-2-yl)-1,2,6-thiadiazinane-3-carboxamide 1,1-dioxide] | < 1
24 | CN1C(C(=O)Nc2ccc(F)c(Cl)c2)CC(c2cc(-c3cncs3)cs2)NS1(=O)=O (racemic) [HBV-CSU-286, Cis-N-(3-Chloro-4-fluorophenyl)-2-methyl-5-(4-(thiazol-5-yl)thiophen-2-yl)-1,2,6-thiadiazinane-3-carboxamide 1,1-dioxide] | < 1
25 | CN1C(C(=O)Nc2ccc(F)c(Cl)c2)CC(c2cc(-c3ccn(C)n3)cs2)NS1(=O)=O (racemic) [HBV-CSU-288, Cis-N-(3-Chloro-4-fluorophenyl)-2-methyl-5-(4-(1-methyl-1H-pyrazol-3-yl)thiophen-2-yl)-1,2,6-thiadiazinane-3-carboxamide 1,1-dioxide] | < 1
26 | CN1C(C(=O)Nc2ccc(F)c(Cl)c2)CC(c2cc(-c3ccnn3C)cs2)NS1(=O)=O (racemic) [HBV-CSU-289, Cis-N-(3-chloro-4-fluorophenyl)-2-methyl-5-(4-(1-methyl-1H-pyrazol-5-yl)thiophen-2-yl)-1,2,6-thiadiazinane-3-carboxamide 1,1-dioxide] | < 1
27 | CN1C(C(=O)Nc2ccc(F)c(Cl)c2)CC(c2cc(-c3cncnc3)cs2)NS1(=O)=O (racemic) [HBV-CSU-290, Cis-N-(3-chloro-4-fluorophenyl)-2-methyl-5-(4-(pyrimidin-5-yl)thiophen-2-yl)-1,2,6-thiadiazinane-3-carboxamide 1,1-dioxide] | < 1
28 | CCn1cc(-c2ccc(C3CC(C(=O)Nc4ccc(F)c(Cl)c4)N(C)S(=O)(=O)N3)s2)cn1 (racemic) [HBV-CSU-291, Cis-N-(3-chloro-4-fluorophenyl)-5-(5-(1-ethyl-1H-pyrazol-4-yl)thiophen-2-yl)-2-methyl-1,2,6-thiadiazinane-3-carboxamide 1,1-dioxide] | < 1
29 | CN1C(C(=O)Nc2ccc(F)c(Cl)c2)CC(c2cc(-c3cnn(CCO)c3)cs2)NS1(=O)=O (racemic) [HBV-CSU-296, Cis-N-(3-chloro-4-fluorophenyl)-5-(4-(1-(2-hydroxyethyl)-1H-pyrazol-4-yl)thiophen-2-yl)-2-methyl-1,2,6-thiadiazinane-3-carboxamide 1,1-dioxide] | 1 to 5
